This is an account of results in patent US20040266811A1, “Methods for inducing regeneration, remyelination, and hypermyelination of nervous tissue” (priority 2002, published 2004).

The test has as its system Erk phosphorylation in DRG neurons. Nature of the test: Erk phosphorylation immunoblot in DRGs. In kind it is cell-based, mice. As to conditions: 1 μM GM-284, 30 min or 4 h. On the procedure: (A) DRGs were prepared and cultured as above, except that either the MEK1 inhibitor, PD 098059, or NGF-neutralizing antibodies were included in cultures treated with either NGF or GM-284. Maximal response was determined to be the extent of neurite outgrowth when DRGs were cultured in NGF alone (spotted bars) or in 1 μM GM-284 (striped bars). As indicated, DRGs were treated with either NGF or GM-284, in the presence of either 0.25 mg/ml anti-NGF neutralizing antibodies or PD 098059. […] DRGs were treated with 100 ng/ml NGF or 1 μM GM-284, for 30 min or 4 h, as indicated, and the detergent lysates were prepared and immunoblotted with anti-phospho-Erk monoclonal antibody. The p42 and p44 bands are indicated by arrowheads.
293T cells were lysed in ice-cold HNTG buffer (20 mM HEPES, pH 7.5; 150 mM NaCl; 10% glycerol; and 1% Triton X-100) containing 0.1 mM sodium molybdate, 1 mM sodium vanadate, 1 mM phenylmethylsulfonyl fluoride (PMSF), and 10 μg/ml aprotinin. After 10 min at 4° C., cleared lysates were subjected to SDS-PAGE and Western blot analysis using standard protocols. Blots were incubated with the indicated primary antibodies and the appropriate […] secondary antibodies, followed by detection using enhanced chemiluminescence (ECL) reagent (Renaissance, NEN).
(In general: In western blotting, separated proteins are transferred to a membrane and probed.)

Entries after “also recorded” stand apart in the source; their conditions may differ.

Regarding `CCC(C)(C)C(=O)C(=O)N1CCC[C@H]1c1nnc([C@@H]2CCCN2C(=O)C(=O)C(C)(C)CC)o1` [GM-284], the “Erk phosphorylation in DRG” value is “no activity on Erk phosphorylation; also recorded: fails to activate the ERK pathway”.
